Like-named read-outs stand apart in the source and are kept apart here.
Key:
Format in all cases: in vivo
[1] = test system: Yellow Fever Mosquito (Aedes aegypti, AEDSAE); details: for YFM rating: Table ABC / ABC-DP rating
How it was run: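 Mortality after 3 days at room temperature is the read-out, scored well by well and converted to a rating. Test molecules came from 4000 ppm stocks in DMSO, further diluted in 90:10 water/acetone, and were exposed to roughly 1-day-old larvae suspended in liver-powder water.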

[2] = test system: Cabbage Looper (Trichoplusia ni, TRIPNI); experiment: Bioassays on Cabbage Looper (CL), 128-well diet tray assay; details: Trichoplusia ni
How it was run: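 Diet tray, 2nd instar, 1–5 larvae/well; 50 μg/cm^2 compound surface-applied (acetone:water 90:10), dried; 8 wells/treatment; 25° C, 14:10 L:D, 5–7 d; % mortality, mean of 8 wells.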

[3] = test system: Beet Armyworm (Spodoptera exigua, LAPHEG); experiment: Bioassays on Beet Armyworm (BAW), 128-well diet tray assay; details: Spodoptera exigua
How it was run: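 Mortality of second-instar larvae (1–5/well) on artificial diet treated with 50 μg/cm^2 compound, read after 5–7 days at 25° C.; values are means of eight wells.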

[4] = Table ABC: Biological Results, species YFM
[5] = Table ABC: Biological Results, species CL, read-out: CL
[6] = Table ABC: Biological Results, species BAW, read-out: BAW
[7] = Yellow Fever Mosquito, rating class
[8] = Cabbage Looper, rating class, read-out: CL
[9] = Beet Armyworm, rating class, read-out: BAW
[10] = Cabbage Looper, Table ABC / ABC-DP rating, read-out: CL rating
[11] = Beet Armyworm, Table ABC / ABC-DP rating, read-out: BAW rating

Structure (SMILES): CC(=O)Nc1ccc(NC(=O)c2cc(NC(=O)[C@H]3[C@H](c4ccc(Cl)c(Cl)c4)C3(Cl)Cl)ccc2Cl)c(C)c1 (relative stereo) [F1059, trans-N-(4-Acetamido-2-methylphenyl)-2-chloro-5-(2,2-dichloro-3-(3,4-dichlorophenyl)cyclopropane-1-carboxamido)benzamide]
- YFM [1, 4]: A (80–100)
- pest or weed control at 50 µg/cm2 [2, 5]: 50 to 100%
- pest or weed control at 50 µg/cm2 [3, 6]: 50 to 100%

Structure (SMILES): Nc1c(F)ccc(NC(=O)c2cc(NC(=O)[C@H]3[C@@H](c4cc(F)c(F)c(Br)c4)C3(Cl)Cl)ccc2Cl)c1F (relative stereo) [F1045, cis-N-(3-Amino-2,4-difluorophenyl)-5-(3-(3-bromo-4,5-difluorophenyl)-2,2-dichlorocyclopropane-1-carboxamido)-2-chlorobenzamide]
- YFM [1, 4]: A (80–100)
- pest or weed control at 50 µg/cm2 [2, 5]: 50 to 100%
- pest or weed control at 50 µg/cm2 [3, 6]: 50 to 100%

Structure (SMILES): Nc1c(F)ccc(NC(=O)c2cc(NC(=O)[C@H]3[C@H](c4cccc(Br)c4)C3(Cl)Cl)ccc2Cl)c1F (relative stereo) [F1594, trans-N-(3-Amino-2,4-difluorophenyl)-5-(3-(3-bromophenyl)-2,2-dichlorocyclopropane-1-carboxamido)-2-chlorobenzamide]
- YFM [1, 7]: A (80–100)
- pest or weed control at 50 µg/cm2 [2, 8]: 50 to 100%
- pest or weed control at 50 µg/cm2 [3, 9]: 50 to 100%

Structure (SMILES): C/C=C/C(=O)Nc1c(F)ccc(NC(=O)c2cc(NC(=O)[C@H]3[C@H](c4ccc(F)c(C(F)(F)F)c4)C3(Cl)Cl)ccc2Cl)c1F [F1868, N-(3-((E)-But-2-enamido)-2,4-difluorophenyl)-2-chloro-5-((1R,3R)-2,2-dichloro-3-(4-fluoro-3-(trifluoromethyl)phenyl)cyclopropane-1-carboxamido)benzamide]
- YFM rating ([1]; Yellow Fever Mosquito): A (80–100)
- pest or weed control at 50 µg/cm2 [2, 10]: 50 to 100%
- pest or weed control at 50 µg/cm2 [3, 11]: 50 to 100%

Structure (SMILES): O=C(Nc1ccc(F)cc1F)c1cc(NC(=O)[C@H]2[C@@H](c3cc(Cl)c(F)c(Cl)c3)C2(Cl)Cl)ccc1Cl (relative stereo) [F1173, cis-2-Chloro-5-(2,2-dichloro-3-(3,5-dichloro-4-fluorophenyl)cyclopropane-1-carboxamido)-N-(2,4-difluorophenyl)benzamide]
- YFM [1, 4]: A (80–100)
- pest or weed control at 50 µg/cm2 [2, 5]: 50 to 100%
- pest or weed control at 50 µg/cm2 [3, 6]: 50 to 100%

Structure (SMILES): CCOC(C)C(=O)Nc1c(F)ccc(NC(=O)c2cc(NC(=O)[C@H]3[C@H](c4ccc(Cl)c(Cl)c4)C3(Cl)Cl)ccc2Cl)c1F (stereo partly drawn) [F1604, 2-Chloro-5-((1R,3R)-2,2-dichloro-3-(3,4-dichlorophenyl)cyclopropane-1-carboxamido)-N-(3-(2-ethoxypropanamido)-2,4-difluorophenyl)benzamide]
- YFM [1, 7]: A (80–100)
- pest or weed control at 50 µg/cm2 [2, 8]: 50 to 100%
- pest or weed control at 50 µg/cm2 [3, 9]: 50 to 100%

Structure (SMILES): O=C(Nc1c(F)ccc(NC(=O)C(F)F)c1F)c1cc(NC(=O)[C@H]2[C@H](c3cc(Cl)c(Cl)c(Cl)c3)C2(Cl)Cl)ccc1F [F1555, 5-((1R,3R)-2,2-Dichloro-3-(3,4,5-trichlorophenyl)cyclopropane-1-carboxamido)-N-(3-(2,2-difluoroacetamido)-2,6-difluorophenyl)-2-fluorobenzamide]
- YFM [1, 7]: A (80–100)
- pest or weed control at 50 µg/cm2 [2, 8]: 50 to 100%
- pest or weed control at 50 µg/cm2 [3, 9]: 50 to 100%

Structure (SMILES): O=C(COC(F)(F)F)Nc1c(F)ccc(NC(=O)c2cc(NC(=O)[C@H]3[C@H](c4cc(C(F)(F)F)cc(C(F)(F)F)c4)C3(Cl)Cl)ccc2Cl)c1F (relative stereo) [F1804, trans-5-(3-(3,5-bis(Trifluoromethyl)phenyl)-2,2-dichlorocyclopropane-1-carboxamido)-2-chloro-N-(2,4-difluoro-3-(2-(trifluoromethoxy)acetamido)phenyl)benzamide]
- YFM rating ([1]; Yellow Fever Mosquito): A (80–100)
- pest or weed control at 50 µg/cm2 [2, 10]: 50 to 100%
- pest or weed control at 50 µg/cm2 [3, 11]: 50 to 100%

Structure (SMILES): Cc1c(F)cc(NC(=O)[C@H]2[C@H](c3ccc(F)c(Cl)c3)C2(Cl)Cl)cc1C(=O)Nc1ccc(F)cc1F (relative stereo) [F1279, trans-5-(2,2-Dichloro-3-(3-chloro-4-fluorophenyl)cyclopropane-1-carboxamido)-N-(2,4-difluorophenyl)-3-fluoro-2-methylbenzamide]
- YFM [1, 4]: B (More than 0 – Less than 80)
- pest or weed control at 50 µg/cm2 [2, 5]: 50 to 100%
- pest or weed control at 50 µg/cm2 [3, 6]: 50 to 100%

Structure (SMILES): CCC(=O)Nc1c(F)ccc(NC(=O)c2cc(NC(=O)[C@H]3[C@H](c4cccc(C(F)(F)F)c4)C3(Cl)Cl)ccc2Cl)c1F [F1679, 2-Chloro-5-((1R,3R)-2,2-dichloro-3-(3-(trifluoromethyl)phenyl)cyclopropane-1-carboxamido)-N-(2,4-difluoro-3-propionamidophenyl)benzamide]
- YFM [1, 7]: A (80–100)
- pest or weed control at 50 µg/cm2 [2, 8]: 50 to 100%
- pest or weed control at 50 µg/cm2 [3, 9]: 50 to 100%

Structure (SMILES): Cc1cc(Br)ccc1NC(=O)c1cc(NC(=O)[C@H]2[C@H](c3cc(Cl)cc(Cl)c3)C2(Cl)Cl)ccc1Cl (relative stereo) [F1054, trans-N-(4-Bromo-2-methylphenyl)-2-chloro-5-(2,2-dichloro-3-(3,5-dichlorophenyl)cyclopropane-1-carboxamido)benzamide]
- YFM [1, 4]: A (80–100)
- pest or weed control at 50 µg/cm2 [2, 5]: 50 to 100%
- pest or weed control at 50 µg/cm2 [3, 6]: 50 to 100%

Structure (SMILES): Cc1cc(NCc2ccc(C#N)cc2)ccc1NC(=O)c1cc(NC(=O)[C@H]2[C@H](c3cc(Cl)cc(Cl)c3)C2(Cl)Cl)ccc1Cl (relative stereo) [F1040, trans-2-Chloro-N-(4-((4-cyanobenzyl)amino)-2-methylphenyl)-5-(2,2-dichloro-3-(3,5-dichlorophenyl)cyclopropane-1-carboxamido)benzamide]
- YFM [1, 4]: A (80–100)
- pest or weed control at 50 µg/cm2 [2, 5]: 50 to 100%
- pest or weed control at 50 µg/cm2 [3, 6]: 50 to 100%

Structure (SMILES): COCC(=O)Nc1c(F)ccc(NC(=O)c2cc(NC(=O)[C@H]3[C@H](c4ccc(Cl)c(Cl)c4)C3(Cl)Cl)ccc2Cl)c1F [F1254, 2-Chloro-5-((1R,3R)-2,2-dichloro-3-(3,4-dichlorophenyl)cyclopropane-1-carboxamido)-N-(2,4-difluoro-3-(2-methoxyacetamido)phenyl)benzamide]
- YFM [1, 4]: A (80–100)
- pest or weed control at 50 µg/cm2 [2, 5]: 50 to 100%
- pest or weed control at 50 µg/cm2 [3, 6]: 50 to 100%

Structure (SMILES): CN(NC(=O)c1cc(NC(=O)[C@H]2[C@H](c3cc(Cl)cc(Cl)c3)C2(Cl)Cl)ccc1Cl)c1cc(C(F)(F)F)ccn1 (relative stereo) [F2507, trans-2,2-Dichloro-N-(4-chloro-3-(2-methyl-2-(4-(trifluoromethyl)pyridin-2-yl)hydrazine-1-carbonyl)phenyl)-3-(3,5-dichlorophenyl)cyclopropane-1-carboxamide]
- YFM rating ([1]; Yellow Fever Mosquito): A (80–100)
- pest or weed control at 50 µg/cm2 [2, 10]: 50 to 100%
- pest or weed control at 50 µg/cm2 [3, 11]: 50 to 100%

From patent US20250228239A1, “MOLECULES HAVING PESTICIDAL UTILITY, AND INTERMEDIATES, COMPOSITIONS, AND PROCESSES, RELATED THERETO” (priority 2024, published 2025)
